Data as given in article PMC6999911, “New 2-Ethylthio-4-methylaminoquinazoline derivatives inhibiting two subunits of cytochrome bc1 in Mycobacterium tuberculosis” (PLoS Pathogens, 2020).
Values after ≈ are worked out from the molar mass of the structure shown. Where two headings read alike, the source gives them in different places.

Assays:
Salmonella typhimurium = test: MIC, different organisms; type: cell-based; conditions: Salmonella enterica
[1] = system: Mycobacterium tuberculosis Erdman; test: MIC, different organisms; type: cell-based
[2] = system: Mycobacterium bovis BCG Pasteur; test: microbe, parasite or virus in culture; type: cell-based; conditions: Mycobacterium tuberculosis variant bovis BCG
[3] = system: Mycolicibacterium vaccae ATCC 15483; test: MIC, different organisms; type: cell-based; conditions: ATCC15483
Candida albicans = test: MIC, different organisms; type: cell-based
Staphylococcus aureus = test: MIC, different organisms; type: cell-based
[4] = system: Mycobacterium canettii STB-L; test: MIC, different organisms; type: cell-based; conditions: Mycobacterium canetti
Listeria monocytogenes = test: MIC, different organisms; type: cell-based
in vitro = conditions: human, microsomes
[5] = system: THP-1 macrophages infected with M.tb H37Rv; test: Ex vivo drug susceptibility in infected THP-1 macrophages; type: cell-based; conditions: Mycobacterium tuberculosis; THP-1 macrophages infected with H37Rv, 48h
HepG2 cells = type: cell-based, Human; conditions: for Selective index TD50/MIC: HepG2 TD50 / H37Rv MIC; for HepG2 TD99: Toxic dose that inhibits 99% of cell growth, 3 days
Experimental: Human HepG2 cells (ATCC HB-8065, 4000 cells/well) were incubated for 3 days with two-fold serially diluted compounds at 37°C, under an atmosphere of 5% CO2. Cell viability was determined by the addition of resazurin (0.0025% w/v) for 5 h at 37°C and the fluorescence intensity measured as in REMA.

[6] = system: non-replicating, streptomycin-starved strain 18b; test: Activity against non-replicating strain 18b (model for latent TB); type: cell-based, Mycobacterium tuberculosis; conditions: streptomycin-starved 18b
Pseudomonas aeruginosa = test: MIC, different organisms; type: cell-based
[7] = microsomes
Escherichia coli PQ37 = test: MIC, different organisms; type: cell-based
[8] = system: Corynebacterium diphtheriae; test: MIC, different organisms; type: cell-based
[9] = system: Mycobacterium marinum Strain M; test: MIC, different organisms; type: cell-based
Pseudomonas putida = test: MIC, different organisms; type: cell-based
[10] = system: Mycobacteroides abscessus subsp. bolletii 1999–0888; test: MIC, different organisms; type: cell-based
[11] = system: Mycobacteroides abscessus subsp. abscessus 2005–0524; test: MIC, different organisms; type: cell-based
[12] = system: Mycobacterium tuberculosis MDR 59744; test: MIC, different organisms; type: cell-based
Enterococcus faecalis = test: MIC, different organisms; type: cell-based
[13] = system: Mycobacterium tuberculosis HN878; test: MIC, different organisms; type: cell-based
[14] = system: Corynebacterium glutamicum ATCC13032; test: MIC, different organisms; type: cell-based
[15] = system: Mycobacteroides abscessus subsp. massiliense 2005–0484; test: MIC, different organisms; type: cell-based
Micrococcus luteus = test: MIC, different organisms; type: cell-based
[16] = system: Mycobacterium smegmatis mc^2155; test: MIC, different organisms; type: cell-based; conditions: Mycolicibacterium smegmatis
Bacillus subtilis = test: MIC, different organisms; type: cell-based
[17] = system: Mycobacterium avium ATCC15769; test: MIC, different organisms; type: cell-based
M. tb H37Rv ΔcydAB [18] = type: cell-based; conditions: 8X MIC, 32X MIC, 7 days, d.l. = limit of detection
[19] = system: cydB and lipU in M. tb H37Rv; type: cell-based, Mycobacterium tuberculosis; conditions: M. tb H37Rv exposed to 11626252, 4 h
M. tb H37Rv [20] = type: cell-based; conditions: 1X - 32X MIC, 7 days
M. tb H37Rv ΔcydAB [21] = type: cell-based; conditions: ΔcydAB strain of M. tb H37Rv, even after CCCP
H37Rv = type: cell-based, Mycobacterium tuberculosis; conditions: 2.5X MIC, 24 h, compared to untreated controls
M. tb H37Rv [22] = type: cell-based; conditions: 11626252 8.4 μM (100x the MIC50)
M. tb H37Rv South Africa = test: Acute model of murine TB; type: in vivo, Mycobacterium tuberculosis; conditions: Balb/c mice
[23] = Mycobacterium canettii STB-L, read-out: MIC

Row | Structure (SMILES) | MIC (Salmonella typhimurium) | MIC [1] | MIC [2] | MIC [3] | MIC (Candida albicans) | MIC (Staphylococcus aureus) | MIC (Listeria monocytogenes) | microsomal CLint (in vitro) | Selective index TD50/MIC (HepG2 cells) | HepG2 TD99 (HepG2 cells) | MIC (Pseudomonas aeruginosa) | Human microsome stability, clearance class [7] | MIC (Escherichia coli PQ37) | MIC [8] | MIC [9] | MIC (Pseudomonas putida) | MIC [10] | MIC [11] | MIC (Enterococcus faecalis) | MIC [13] | also measured
1 | CNc1nc(SCc2ccccc2)nc2cccc(F)c12 |  |  |  |  |  |  |  |  |  |  |  |  |  |  |  |  |  |  |  |  | melting point: 101 to 104 °C
2 | CCSc1nc(NC)c2cc(C(F)(F)F)ccc2n1 |  |  |  |  |  |  |  |  |  |  |  |  |  |  |  |  |  |  |  |  | melting point: 161 to 163 °C
3 | CCSc1nc(NC)c2ccccc2n1 [Compound 11626141] | ≥ 100 mg/L | 0.01 mg/L (≈ 0.0456 µM) | 0.9 mg/L (≈ 4.1 µM) | ≥ 100 mg/L | ≥ 100 mg/L | ≥ 100 mg/L | ≥ 100 mg/L | 120 µL/min/mg | 575 | 53 µg/mL | ≥ 100 mg/L | high | ≥ 100 mg/L | ≥ 100 mg/L | 0.1 mg/L (≈ 0.456 µM) | ≥ 100 mg/L | ≥ 100 mg/L | 62.4 mg/L (≈ 285 µM) | ≥ 100 mg/L | 0.05 mg/L (≈ 0.228 µM) | MIC [4, 23]: 0.05 mg/L (≈ 0.228 µM); IC50 [5]: 0.013 mg/L (≈ 0.0593 µM); Activity against non-replicating strain 18b [6]: no activity; MIC ([12]; MDR59744, read-out: MIC): 0.02 mg/L (≈ 0.0912 µM); MIC [14]: 66.8 mg/L (≈ 305 µM); MIC [15]: ≥ 100 mg/L; MIC (Micrococcus luteus): ≥ 100 mg/L; MIC [16]: 38.4 mg/L (≈ 175 µM); MIC (Bacillus subtilis): ≥ 100 mg/L; MIC [17]: ≥ 100 mg/L
4 | CCNc1nc(SCC)nc2ccccc12 [Compound 11626142] | ≥ 100 mg/L | 0.1 mg/L (≈ 0.429 µM) | 0.8 mg/L (≈ 3.43 µM) | ≥ 100 mg/L | 44.3 mg/L (≈ 190 µM) | ≥ 100 mg/L | ≥ 100 mg/L | 122 µL/min/mg | 100 | 26 µg/mL | ≥ 100 mg/L | high | ≥ 100 mg/L | 44.3 mg/L (≈ 190 µM) | 0.8 mg/L (≈ 3.43 µM) | ≥ 100 mg/L | ≥ 100 mg/L | 100 mg/L (≈ 429 µM) | ≥ 100 mg/L | 0.2 mg/L (≈ 0.857 µM) | MIC [4, 23]: 0.2 mg/L (≈ 0.857 µM); IC50 [5]: 0.012 mg/L (≈ 0.0514 µM); Activity against non-replicating strain 18b [6]: no activity; MIC ([12]; MDR59744, read-out: MIC): 0.09 mg/L (≈ 0.386 µM); MIC [14]: 75 mg/L (≈ 321 µM); MIC [15]: ≥ 100 mg/L; MIC (Micrococcus luteus): ≥ 100 mg/L; MIC [16]: 75.6 mg/L (≈ 324 µM); MIC (Bacillus subtilis): ≥ 100 mg/L; MIC [17]: 49.1 mg/L (≈ 210 µM)
5 | CCSc1nc(NC)c2cccc(F)c2n1 [Compound 11626252] | ≥ 100 mg/L | 0.02 mg/L (≈ 0.0843 µM) | 1.6 mg/L (≈ 6.74 µM) | ≥ 100 mg/L | ≥ 100 mg/L | ≥ 100 mg/L | ≥ 100 mg/L | 18.1 µL/min/mg | 1950 | > 100 µg/mL | ≥ 100 mg/L | medium | ≥ 100 mg/L | ≥ 100 mg/L | 0.007 mg/L (≈ 0.0295 µM) | ≥ 100 mg/L | ≥ 100 mg/L | ≥ 100 mg/L | ≥ 100 mg/L | 0.03 mg/L (≈ 0.126 µM) | log10 CFU/mL (M. tb H37Rv ΔcydAB [18]): < d.l.; MIC [4, 23]: 0.03 mg/L (≈ 0.126 µM); IC50 [5]: 0.011 mg/L (≈ 0.0464 µM); Activity against non-replicating strain 18b [6]: no activity; expression of cydB and lipU (qRT-PCR) [19]: Overexpression; static or cidal activity by CFU enumeration (M. tb H37Rv [20]): bacteriostatic; oxygen consumption rate (OCR) after exposure (M. tb H37Rv ΔcydAB [21]): rapid and sustained decrease; MIC ([12]; MDR59744, read-out: MIC): 0.02 mg/L (≈ 0.0843 µM); remaining relative ATP level (H37Rv): 19.81±8.125%; MIC [14]: 47.2 mg/L (≈ 199 µM); MIC [15]: ≥ 100 mg/L; oxygen consumption rate (OCR) after exposure (M. tb H37Rv [22]): increased; MIC (Micrococcus luteus): ≥ 100 mg/L; MIC [16]: 32.3 mg/L (≈ 136 µM); MIC (Bacillus subtilis): ≥ 100 mg/L; MIC [17]: ≥ 100 mg/L
6 | CCSc1nc(NC)c2ccc(F)c(F)c2n1 [Compound 11726148] |  |  |  |  |  |  |  | 28.7 µL/min/mg | 780 | > 100 µg/mL |  | medium |  |  |  |  |  |  |  |  | melting point: 186 to 189 °C; decrease of bacterial burden in the lungs (M. tb H37Rv South Africa; 150 mg/kg gavage daily for 10 days, vs untreated TPGS control, p-value 0.004): 0.51 log10 CFU/organ
7 | NNC(=O)c1ccncc1 [INH, isoniazid, reference compound] |  |  |  |  |  |  |  |  |  |  |  |  |  |  |  |  |  |  |  |  | log10 CFU per lung (M. tb H37Rv South Africa; INH 25mg/kg gavage, 10 days, d.l. = limit of detection): < d.l.
8 | CO[C@H]1/C=C/O[C@@]2(C)Oc3c(C)c(O)c4c(O)c(c(/C=N/N5CCN(C)CC5)c(O)c4c3C2=O)NC(=O)/C(C)=C\C=C\[C@H](C)[C@H](O)[C@@H](C)[C@@H](O)[C@@H](C)[C@H](OC(C)=O)[C@@H]1C [RIF, rifampicin, reference compound] | 0.8 mg/L (≈ 0.972 µM) | 0.001 mg/L (≈ 0.00122 µM) | 0.0008 mg/L (≈ 0.000972 µM) | 6.6 mg/L (≈ 8.02 µM) | 2.2 mg/L (≈ 2.67 µM) | 1.4 mg/L (≈ 1.7 µM) | 0.6 mg/L (≈ 0.729 µM) |  |  |  | 0.2 mg/L (≈ 0.243 µM) |  | 6.5 mg/L (≈ 7.9 µM) | 0.5 mg/L (≈ 0.608 µM) | 0.2 mg/L (≈ 0.243 µM) | 3 mg/L (≈ 3.65 µM) | 24.8 mg/L (≈ 30.1 µM) | 18.1 mg/L (≈ 22 µM) | 3.9 mg/L (≈ 4.74 µM) | 0.0006 mg/L (≈ 0.000729 µM) | MIC [4]: 0.001 mg/L (≈ 0.00122 µM); MIC ([12]; MDR59744): ≥ 10 mg/L; MIC [14]: 0.004 mg/L (≈ 0.00486 µM); MIC [15]: 9.5 mg/L (≈ 11.5 µM); MIC (Micrococcus luteus): 0.2 mg/L (≈ 0.243 µM); MIC [16]: 0.9 mg/L (≈ 1.09 µM); MIC (Bacillus subtilis): 0.3 mg/L (≈ 0.365 µM); MIC [17]: 27.3 mg/L (≈ 33.2 µM)
